Laboratory results as given in patent publication US4443448A, “Indane derivatives, pharmaceutical compositions thereof and method of preparation” (priority 1980, dated 1984).
Read-outs that look alike come from different tables or passages of the source.

Experiments:
in vivo [1] = assay: in vivo
methylphenidate = assay: Methylphenidate antagonism in mice; type: in vivo; conditions: for ED50: Mus musculus, ip
Protocol: Methylphenidate antagonism (ED50 mg/kg i.p.)
(§1) Perspex observation cages without bottom and lid, consisting of 5 sections each measuring 12×25×30 cm.
3×2 mice are used for each dose level. Two or 24 hours after injection of test substance, methylphenidate, 60 mg/kg, is injected s.c. After administration of methylphenidate the mice are placed in the observation cages, 2 in each cage, where they remain for exactly 1 hour. The cages were placed on corrugated paper, the corrugations facing upwards. It is examined whether the mice have been biting the corrugated paper or not. […] If one or more of the control pairs have not been biting, the test has to be repeated on a new set of mice.
The result is stated in fractions: 0/3, 1/3, 2/3 and 3/3 where 0, 1, 2 and 3 are the number of pairs which have not been biting on receipt of the dose in question.

[2] = system: 3H-DA uptake in striatal synaptosomes; assay: 3H-DA uptake in striatal synaptosomes in vitro; type: biochemical, rats; conditions: rat striatal synaptosomes, 12.5 nM 3H-DA, 37° C., pH 7.4
Protocol: ^3 H-DA uptake in striatal synaptosomes in vitro
0.32 M sucrose containing 1 mM Nialamide
Millipore filters (HAWPO 2500, 0.45μ)
3,4-dihydroxyphenylethylamine[ethyl-1-^3 H(N)]=^3 H-DA spc. act. app. 15 Ci/mmol, New England Nuclear Thomas Tissue Grinder, clearance 0.004-0.006 inch.
Rats are killed by a blow to their head, exsanguinated and their brains removed. The brain is placed on a precooled glassplate, and the two corpura striata are dissected out and gently homogenized in 40 volumes of ice cold 0.32 M sucrose containing 1 mM of nialamide using a hand homogenizer with teflon pestle. The P2 -fraction (synaptosomal fraction) is obtained by centrifugation (600 g, 10 min., 25000 g, 55 min. 4° C.) and suspended in 40 volumes of a modified Krebs-Ringer-phosphate buffer, pH 7.4. To 200 μl of the synaptosomal fraction on ice are added 3700 μl modified Krebs-Ringer-phosphate buffer--containing test compounds. After a preincubation at 37° C. for 5 min. […] The incubation is terminated by filtering the samples under vacuum through Millipore filters with a wash of 5 ml buffer containing 10 μM of unlabelled DA. After solubilizing the filters in 1 ml of cellosolve the radioactivity is determined by liquid scintillation counting after the addition of 10 ml of Insta-Gel. The unspecific binding of ^3 H-DA is determined by incubating control samples on ice instead of at 37° C.
All experiments are performed in triplicate.
The mean of all control samples and ice samples are calculated. […] The IC50-values are determined as the concentrations, at which the uptake are 50 percent of the uptake in control samples-uptake in ice samples.

amphetamine = assay: Amphetamine antagonism in rats; type: in vivo; conditions: for ED50: Rattus norvegicus, po, read-out: Amphetamine antag. ED50 p.o.
Protocol: Amphetamine antagonism (ED50 mg/kg i.p.)
as §1
The test substance is given p.o. in a reasonable dose based on the determined LD50. Two or 24 hours later an intravaneous injection of amphetamine sulphate 13.6 mg/kg (10 mg/kg amphetamine base) is given, after which the rats are placed individually in the cages. The cages are placed on white corrugated paper. Five rats are used for each dose level. Observations are made after 55 minutes and 65 minutes-observation time: 1 minute. The animals are observed for stereotypy (movements of the head, compulsive gnawing). […] If the compound has full antagonistic effect another group of rats is used at a lower dose. […] The result is stated as fractions: 0/5, 1/5, 2/5, 3/5, 4/5 and 5/5, where 0, 1, 2, 3, 4 and 5 indicate the number of rats which have not shown stereotypy at the dose in question. The results are calculated as ED50 in mg/kg.

in vivo [3] = assay: in vivo; parameters: species or system rats; conditions: for Ratio catalep./Amphet.: catalepsy ED50 / amphetamine antagonism ED50; for ED50: rat, in vivo, po, read-out: Catalep. (catalepsy wire mesh, rat, max, ED50)
Protocol: A vertical wire netting (50 cm×49 cm). The meshes (openings) of the netting are square (1 cm×1 cm). The wire diameter is 2 mm.
The animals are labeled and used in groups of five. The test substance is administered orally (p.o) at 4 dose levels selected from the fixed dose scale.
The animals are placed in the middle of the vertical wire netting 60, 120, 180, 240, 300 and 360 minutes after administration of the test compound. The animals are considered cataleptic when they remain immobile during a period of 15 seconds.
This cataleptic reaction is designated +. If the rats are "atonic" and passively slide down the wire mesh they are considered not cataleptic. If the animals climb up and down the wire mesh they are nor cataleptic.
In both situations the designation--is used.

[4] = Mouse grid shock (analgesia); type: in vivo; conditions: mice, minimal effective dose, in mg/kg
Protocol: The mouse grid consists of a perspex cage with wire grid bottom and a perspex lid, on which is placed a microphone sensitive to the frequency of a mouse squeak. A stimulator with motordriven potentiometer applies a sequence of square wave impulses of continuously increasing milliamperage to the grid. Frequency of impulses 20 cycles/sec., duration 5 msec. Milliamperage is recorded on a digital amperemeter connected to the stimulator. Activation of the microphone by a mouse-squeak cuts off the current and the final milliamperage appears on the meter.
Five mice are used for each dose level. Each mouse serves as its own control.
Prior to the administration of test substance the animals are placed on the grid one at a time, and the pain threshold is determined by increasing the current intensity until the mouse squeaks. The pain threshold may be read on the milliamperemeter. Fifteen minutes and 30 minutes after administration of test substance the mice are tested again and the pain thresholds recorded.
Analgesic effect is present, when the pain threshold is increased over the pre-dosing value (control value). The results are stated as % increase in pain threshold calculated on the basis of the control value.
The registration can also be done as an on-line procedure. In this case the punching instruction and punching cards will be provided automatically and the results will be registered as a minimal effective dose (MED) determined after van der Waerdens X-test.

[5] = 2 h, read-out: MePh antag. ED50 2 hr i.p., mice, test substance i.p., 2 hr before methylphenidate 60 mg/kg s.c.
[6] = rats, p.o., amphetamine 10 mg/kg base i.v.
[7] = rats, p.o., strongest effect within first 6 hours
[8] = read-out: MePh antag. ED50 2 hr i.p., mice, test substance i.p., 2 hr before methylphenidate 60 mg/kg s.c.

| SMILES | LD50 (in vivo [1]; iv) [mg/kg] | ED50 (methylphenidate; [5]) [mg/kg] | IC50 [2] [µM] | Ratio catalep./Amphet. (in vivo [3]) | ED50 (in vivo [3]; [7]) [mg/kg] | MED Grid Shock [4] | further results |
| --- | --- | --- | --- | --- | --- | --- | --- |
| OCCCN1CCN([C@@H]2C[C@@H](c3ccc(F)cc3)c3ccc(F)cc32)CC1 (relative stereo) [Lu 14-036] | 129 | 1.6 | 0.073 | 1.6 | 3.7 | 5 | ED50 (amphetamine; [6]): 2.3 mg/kg |
| OCCCN1CCN([C@@H]2C[C@H](c3ccc(F)cc3)c3ccc(F)cc32)CC1 (relative stereo) [Lu 14-048] | – | – | 0.046 | – | – | – | – |
| CN1CCN([C@@H]2C[C@@H](c3ccccc3)c3ccc(F)cc32)CC1 (relative stereo) [Lu 14-067] | – | > 40 | 0.068 | – | – | 5 | – |
| OCCN1CCN([C@@H]2C[C@@H](c3ccc(F)cc3)c3ccc(Cl)cc32)CC1 (relative stereo) [Lu 14-068] | 94 | 1.3 | 0.084 | 0.9 | 1.5 | 0.31 | ED50 (amphetamine; [6]): 1.6 mg/kg |
| CN1CCN([C@@H]2C[C@H](c3ccc(Cl)c(Cl)c3)c3ccccc32)CC1 (relative stereo) [Lu 17-109] | – | – | 0.004 | – | – | – | – |
| CN1CCN([C@@H]2C[C@@H](c3ccc(Cl)c(Cl)c3)c3ccccc32)CC1 (relative stereo) [Lu 17-110] | – | – | 0.011 | – | – | – | – |
| OCCN1CCN([C@@H]2C[C@H](c3ccc(Cl)c(Cl)c3)c3ccccc32)CC1 (relative stereo) [Lu 17-132] | – | – | 0.012 | – | – | – | – |
| OCCN1CCN([C@@H]2C[C@@H](c3ccc(Cl)c(Cl)c3)c3ccccc32)CC1 (relative stereo) [Lu 17-133] | – | – | 0.003 | – | – | – | – |
| OCCCCN1CCN([C@@H]2C[C@@H](c3ccc(F)cc3)c3ccc(F)cc32)CC1 (relative stereo) [Lu 18-080] | 80 | 2.9 | 0.025 | 6.2 | 21.8 | < 1.3 | ED50 (amphetamine; [6]): 3.5 mg/kg |
| OCCCN1CCN([C@@H]2C[C@@H](c3ccc(Cl)c(Cl)c3)c3ccccc32)CC1 (relative stereo) [Lu 18-081] | – | – | 0.015 | – | – | – | – |
| OCCCN1CCN([C@@H]2C[C@H](c3ccc(Cl)c(Cl)c3)c3ccccc32)CC1 (relative stereo) [Lu 18-082] | – | – | 0.006 | – | – | – | – |
| OCCCCN1CCN([C@@H]2C[C@H](c3ccc(Cl)c(Cl)c3)c3ccccc32)CC1 (relative stereo) [Lu 18-120] | – | – | 0.005 | – | – | – | – |
| OCCCCN1CCN([C@@H]2C[C@@H](c3ccc(Cl)c(Cl)c3)c3ccccc32)CC1 (relative stereo) [Lu 18-121] | – | – | 0.011 | – | – | – | – |
| OCC(O)CN1CCN(C2CC(c3ccc(F)cc3)c3ccc(F)cc32)CC1 (single isomer, unassigned) [Lu 17-066] | > 160 | 1.6 | 0.027 | 8.9 | > 160 | 2.5 | ED50 (amphetamine; [6]): 18 mg/kg |
| OCC(O)CN1CCN(C2CC(c3ccc(F)cc3)c3ccc(F)cc32)CC1 (single isomer, unassigned) [Lu 17-079] | – | – | 0.012 | – | – | – | – |
| OCC(O)CN1CCN(C2CC(c3ccc(Cl)c(Cl)c3)c3ccccc32)CC1 (single isomer, unassigned) [Lu 18-128] | – | – | 0.012 | – | – | – | – |
| OCC(O)CN1CCN(C2CC(c3ccc(Cl)c(Cl)c3)c3ccccc32)CC1 (single isomer, unassigned) [Lu 18-129] | – | – | 0.014 | – | – | – | – |
| CN1CCN(C2CC(c3ccc(F)cc3)c3ccc(F)cc32)CC1 (single isomer, unassigned; (-)) [Lu 17-152, (-) 1-Methyl-4-(3-(4'-fluorophenyl)-6-fluoro-1-indanyl)piperazine] | – | – | 0.088 | – | – | 5 | MePh antag. ED50 2 hr i.p. (methylphenidate; mice, test substance i.p., 2 hr before methylphenidate 60 mg/kg s.c., 120 min): 17 mg/kg; Amphetamine antag. ED50 p.o. (amphetamine; [6]): > 80 mg/kg; Catalep. (catalepsy wire mesh, rat, max, ED50) (in vivo [3]; [7]): > 320 mg/kg |
| CC(O)CN1CCN(C2CC(c3ccc(F)cc3)c3ccc(F)cc32)CC1 (stereo not shown) [Lu 17-144, 1-(2-hydroxy-1-propyl)-4-(3-(4'-fluorophenyl)-6-fluoro-1-indanyl)piperazine] | – | – | 0.018 | – | – | – | – |
| CC(C)N1CCN(C2CC(c3ccc(F)cc3)c3ccc(C(F)(F)F)cc32)CC1 (stereo not shown) [Lu 18-050] | 57 | 0.44 | – | 2.4 | 0.52 | 10 | ED50 (amphetamine; [6]): 0.22 mg/kg |
| OCC(O)CN1CCN(C2CC(c3ccc(F)cc3)c3ccc(C(F)(F)F)cc32)CC1 (stereo not shown) [Lu 18-063] | 57 | 0.4 | – | 3.2 | 0.38 | 1.25 | ED50 (amphetamine; [6]): 0.12 mg/kg |
| CN(C)CCCN1c2ccccc2Sc2ccc(Cl)cc21 [chlorpromazine, reference compound] | 56.5 | – | – | 1.19 | 25 | 5 | ED50 (methylphenidate; [8]): 5.6 mg/kg; ED50 (amphetamine): 21 mg/kg |
| OCCN1CCN(CCCN2c3ccccc3Sc3ccc(C(F)(F)F)cc32)CC1 [fluphenazine, reference compound] | 98 | 0.04 | – | 0.43 | 0.3 | 2.5-5 | ED50 (amphetamine; [6]): 0.7 mg/kg |
| O=C(CCCN1CCC(O)(c2ccc(Cl)cc2)CC1)c1ccc(F)cc1 [haloperidol, reference compound] | – | – | – | 1.0 | 0.4 | < 5 | LD50 (in vivo [1]; ip): 226 mg/kg; ED50 (methylphenidate; [8]): 0.04 mg/kg; ED50 (amphetamine): 0.4 mg/kg |
